Patent US11840497B2, “4-(p-quinonyl)-2-hydroxybutanamide derivatives for treatment of mitochondrial diseases” (PTC Therapeutics, Inc., priority 2007, dated 2023)

How the values were obtained:
Type in all cases: cell-based
[1] = system: Human dermal fibroblasts from Friedreich's Ataxia patients; assay: Rescue of BSO-stressed FRDA fibroblasts (Example A); settings: FRDA fibroblasts GM04078, 1 mM BSO, read-out: protection against FRDA, EC50
Protocol: Test samples, 4 reference compounds (idebenone, decylubiquinone, Trolox and α-tocopherol acetate), and solvent controls were tested for their ability to rescue FRDA fibroblasts stressed by addition of L-buthionine (S,R)-sulfoximine (BSO), as described in Jauslin et al., Hum. Mol. Genet. […] Mol. Genet. […] This specific BSO-mediated cell death can be prevented by administration of antioxidants or molecules involved in the antioxidant pathway, such as α-tocopherol, selenium, or small molecule glutathione peroxidase mimetics. However, antioxidants differ in their potency, i.e. the concentration at which they are able to rescue BSO-stressed FRDA fibroblasts.
Fetal Calf Serum was obtained from PAA Laboratories. Basic fibroblast growth factor and epidermal growth factor were purchased from PeproTech. Penicillin-streptomycin-glutamine mix, L-buthionine (S,R)-sulfoximine, (+)-α-tocopherol acetate, decylubiquinone, and insulin from bovine pancreas were purchased from Sigma. Trolox (6-Hydroxy-2,5,7,8-tetramethylchroman-2-carboxylic acid) was obtained from Fluka. Idebenone was obtained from Chemo Iberica. Calcein AM was purchased from Molecular Probes. Cell culture medium was made by combining 125 ml M199 EBS, 50 ml Fetal Calf Serum, 100 U/ml penicillin, 100 μg/ml streptomycin, 2 mM glutamine, 10 μg/ml insulin, 10 ng/ml EGF, and 10 ng/ml bFGF; MEM EBS was added to make the volume up to 500 ml. […] During the course of the experiments, this solution was stored at +4° C. The cells were obtained from the Coriell Cell Repositories (Camden, NJ; repository number GM04078) and grown in 10 cm tissue culture plates. Every third day, they were split at a 1:3 ratio.
The test samples were supplied in 1.5 ml glass vials. […] Once dissolved, they were stored at −20° C. Reference antioxidants (idebenone, decylubiquinone, α-tocopherol acetate and trolox) were dissolved in DMSO.
Test samples were screened according to the following protocol: A culture with FRDA fibroblasts was started from a 1 ml vial with approximately 500,000 cells stored in liquid nitrogen. […] Once confluent, fibroblasts were harvested. […] The remaining cells were distributed in 10 cm cell culture plates (500,000 cells/plate) for propagation. The plates were incubated overnight at 37° C. in a atmosphere with 95% humidity and 5% CO2 to allow attachment of the cells to the culture plate.
MTP medium (243 μl) was added to a well of the microtiter plate. […] Serial dilutions from the master solution were made. The period between the single dilution steps was kept as short as possible (generally less than 1 second).
Plates were kept overnight in the cell culture incubator. The next day, 10 μl of a 10 mM BSO solution were added to the wells, resulting in a 1 mM final BSO concentration. Forty-eight hours later, three plates were examined under a phase-contrast microscope to verify that the cells in the 0% control (wells E1-H1) were clearly dead. The medium from all plates was discarded, and the remaining liquid was removed by gently tapping the plate inversed onto a paper towel.
The plates were incubated for 50-70 minutes at room temperature. After that time the PBS was discarded, the plate gently tapped on a paper towel and fluorescence (excitation/emission wavelengths of 485 nm and 525 nm, respectively) was read on a Gemini fluorescence reader. Data was imported into Microsoft Excel (EXCEL is a registered trademark of Microsoft Corporation for a spreadsheet program) and used to calculate the EC50 concentration for each compound.
The compounds were tested three times, i.e., the experiment was performed three times, the passage number of the cells increasing by one with every repetition.
The viability of non-BSO treated fibroblasts was set as 100%, and the viability of the BSO- and compound-treated cells was calculated as relative to this value.

[2] = system: human dermal fibroblasts from CoQ10 deficient patients; assay: Rescue of stressed fibroblasts from CoQ10 deficient patients (Example E); settings: Fibroblast, fibroblasts harboring a CoQ2 mutation, screen similar to Example A, read-out: protection against CoQ10 deficiency, EC50
Protocol: Compounds of the invention were tested using a screen similar to the one described in Example A, but substituting FRDA cells with cells obtained from CoQ10 deficient patients harboring a CoQ2 mutation.

[3] = system: human dermal fibroblasts from Huntington's patients; assay: Rescue of BSO-stressed fibroblasts from Huntington's patients (Example B); settings: Fibroblast, Huntington's fibroblasts GM 04281, screen as Example A, read-out: protection against Hungtington's, EC50
Protocol: The compounds were tested for their ability to rescue human dermal fibroblasts from Huntington's patients from oxidative stress.

[4] = system: human dermal fibroblasts from LHON patients; assay: Rescue of BSO-stressed fibroblasts from LHON patients (Example C); settings: Fibroblast, LHON fibroblasts GM03858, screen as Example A, read-out: protection against LHON, EC50
Protocol: The compounds were tested for their ability to rescue human dermal fibroblasts from LHON patients from oxidative stress.

[5] = system: human dermal fibroblasts from Parkinson's Disease patients; assay: Rescue of BSO-stressed fibroblasts from Parkinson's Disease patients (Example D); settings: Fibroblast, PD fibroblasts AG20439, screen as Example A, read-out: protection against PD, EC50
Protocol: The compounds were tested for their ability to rescue human dermal fibroblasts from Parkinson's Disease patients from oxidative stress.

With CC1=C(C)C(=O)C(CCC(C)(O)C(=O)N2CCNCC2)=C(C)C1=O (stereo not drawn) [2-(3-hydroxy-3-methyl-4-oxo-4-(piperazin-1-yl)butyl)-3,5,6-trimethylcyclohexa-2,5-diene-1,4-dione] the EC50 [1] was under 100 nM and the EC50 [2] was under 100 nM.
With CC(=O)N1CCN(C(=O)C(C)(O)CCC2=C(C)C(=O)C(C)=C(C)C2=O)CC1 (stereo not drawn) [2-(4-(4-acetylpiperazin-1-yl)-3-hydroxy-3-methyl-4-oxobutyl)-3,5,6-trimethylcyclohexa-2,5-diene-1,4-dione] the EC50 [1] was under 100 nM, the EC50 [3] was under 100 nM and the EC50 [4] was under 100 nM. For the same compound, the EC50 [2] was under 100 nM.
CC1=C(C)C(=O)C(CCC(C)(O)C(=O)NCc2cccnc2)=C(C)C1=O (stereo not drawn) [2-hydroxy-2-methyl-N-(pyridin-3-ylmethyl)-4-(2,4,5-trimethyl-3,6-dioxocyclohexa-1,4-dienyl)butanamide] gave an EC50 [4] of under 100 nM and an EC50 [2] of under 100 nM.
With CC1=C(C)C(=O)C(CCC(C)(O)C(=O)NC(C)C)=C(C)C1=O (stereo not drawn) [2-hydroxy-N-isopropyl-2-methyl-4-(2,4,5-trimethyl-3,6-dioxocyclohexa-1,4-dienyl)butanamide] the EC50 [5] was under 100 nM.
Compound CC1=C(C)C(=O)C(CC[C@](C)(O)C(N)=O)=C(C)C1=O [(S)-2-hydroxy-2-methyl-4-(2,4,5-trimethyl-3,6-dioxocyclohexa-1,4-dienyl)butanamide] has an EC50 [1] of under 100 nM, an EC50 [3] of under 100 nM and an EC50 [4] of under 100 nM. It also gave an EC50 [2] of under 100 nM.
CC1=C(C)C(=O)C(CCC(C)(O)C(N)=O)=C(C)C1=O (stereo not drawn) [Example 16, 2-Hydroxy-2-methyl-4-(2,4,5-trimethyl-3,6-dioxocyclohexa-1,4-dienyl)butanamide] was tested, and the EC50 [1] was under 100 nM, the EC50 [3] was under 100 nM and the EC50 [4] was under 100 nM. The EC50 [2] was under 100 nM.
CC1=C(C)C(=O)C(CCC(C)(O)C(=O)NC(C)CO)=C(C)C1=O (stereo not drawn) [Example 19, 2-Hydroxy-N-(1-hydroxypropan-2-yl)-2-methyl-4-(2,4,5-trimethyl-3,6-dioxocyclohexa-1,4-dienyl)butanamide] showed an EC50 [1] of under 100 nM, an EC50 [3] of under 100 nM and an EC50 [4] of under 100 nM.
In the case of CC1=C(C)C(=O)C(CCC(C)(O)C(=O)NCCCn2ccnc2)=C(C)C1=O (stereo not drawn) [Example 23, N-(3-(1H-imidazol-1-yl)propyl)-2-hydroxy-2-methyl-4-(2,4,5-trimethyl-3,6-dioxocyclohexa-1,4-dienyl)butanamide], the EC50 [1] is reported as under 100 nM, the EC50 [3] is reported as under 100 nM and the EC50 [5] is reported as under 100 nM.
Work on CC1=C(C)C(=O)C(CC[C@@](C)(O)C(=O)NCCO)=C(C)C1=O [Example 24, (R)-2-Hydroxy-N-(2-hydroxyethyl)-2-methyl-4-(2,4,5-trimethyl-3,6-dioxocyclohexa-1,4-dienyl)butanamide] yielded an EC50 [1] of under 100 nM, an EC50 [3] of under 100 nM and an EC50 [5] of under 100 nM.
Work on CCCCCCNC(=O)C(C)(O)CCC1=C(C)C(=O)C(C)=C(C)C1=O (stereo not drawn) [Example 43, N-hexyl-2-hydroxy-2-methyl-4-(2,4,5-trimethyl-3,6-dioxocyclohexa-1,4-dienyl)butanamide] yielded an EC50 [4] of under 100 nM and an EC50 [2] of under 100 nM.
In the case of CC1=C(C)C(=O)C(CCC(C)(O)C(=O)NCc2ccccc2Cl)=C(C)C1=O (stereo not drawn) [N-(2-chlorobenzyl)-2-hydroxy-2-methyl-4-(2,4,5-trimethyl-3,6-dioxocyclohexa-1,4-dienyl)butanamide], the EC50 [1] is reported as under 100 nM, the EC50 [3] is reported as under 100 nM and the EC50 [4] is reported as under 100 nM.
Compound CC1=C(C)C(=O)C(CCC(C)(O)C(=O)NCCc2ccccc2Cl)=C(C)C1=O (stereo not drawn) [N-(2-chlorophenethyl)-2-hydroxy-2-methyl-4-(2,4,5-trimethyl-3,6-dioxocyclohexa-1,4-dienyl)butanamide] has an EC50 [1] of under 100 nM and an EC50 [2] of under 100 nM.
CC1=C(C)C(=O)C(CCC(C)(O)C(=O)NCc2ccccc2F)=C(C)C1=O (stereo not drawn) [N-(2-fluorobenzyl)-2-hydroxy-2-methyl-4-(2,4,5-trimethyl-3,6-dioxocyclohexa-1,4-dienyl)butanamide] was tested, and the EC50 [1] was under 100 nM, the EC50 [3] was under 100 nM and the EC50 [4] was under 100 nM.
CC1=C(C)C(=O)C(CCC(C)(O)C(=O)NCc2cccc(Cl)c2)=C(C)C1=O (stereo not drawn) [N-(3-chlorobenzyl)-2-hydroxy-2-methyl-4-(2,4,5-trimethyl-3,6-dioxocyclohexa-1,4-dienyl)butanamide] showed an EC50 [1] of under 100 nM, an EC50 [3] of under 100 nM and an EC50 [4] of under 100 nM.
Work on CC1=C(C)C(=O)C(CCC(C)(O)C(=O)NCCc2cccc(Cl)c2)=C(C)C1=O (stereo not drawn) [N-(3-chlorophenethyl)-2-hydroxy-2-methyl-4-(2,4,5-trimethyl-3,6-dioxocyclohexa-1,4-dienyl)butanamide] yielded an EC50 [1] of under 100 nM, an EC50 [3] of under 100 nM and an EC50 [4] of under 100 nM.
CC1=C(C)C(=O)C(CCC(C)(O)C(=O)NCc2cccc(F)c2)=C(C)C1=O (stereo not drawn) [N-(3-fluorobenzyl)-2-hydroxy-2-methyl-4-(2,4,5-trimethyl-3,6-dioxocyclohexa-1,4-dienyl)butanamide] was tested, and the EC50 [1] was under 100 nM, the EC50 [3] was under 100 nM and the EC50 [4] was under 100 nM.
In the case of CC1=C(C)C(=O)C(CCC(C)(O)C(=O)NCc2ccc(Cl)cc2)=C(C)C1=O (stereo not drawn) [N-(4-chlorobenzyl)-2-hydroxy-2-methyl-4-(2,4,5-trimethyl-3,6-dioxocyclohexa-1,4-dienyl)butanamide], the EC50 [1] is reported as under 100 nM, the EC50 [3] is reported as under 100 nM and the EC50 [4] is reported as under 100 nM.
CC1=C(C)C(=O)C(CCC(C)(O)C(=O)NCCc2ccc(Cl)cc2)=C(C)C1=O (stereo not drawn) [N-(4-chlorophenethyl)-2-hydroxy-2-methyl-4-(2,4,5-trimethyl-3,6-dioxocyclohexa-1,4-dienyl)butanamide] gave an EC50 [1] of under 100 nM, an EC50 [3] of under 100 nM and an EC50 [4] of under 100 nM. The EC50 [2] was under 100 nM.
CC1=C(C)C(=O)C(CCC(C)(O)C(=O)Nc2ccc(Cl)cc2)=C(C)C1=O (stereo not drawn) [N-(4-chlorophenyl)-2-hydroxy-2-methyl-4-(2,4,5-trimethyl-3,6-dioxocyclohexa-1,4-dienyl)butanamide] showed an EC50 [1] of under 100 nM, an EC50 [3] of under 100 nM and an EC50 [4] of under 100 nM.
For CC1=C(C)C(=O)C(CCC(C)(O)C(=O)NCc2ccc(F)cc2)=C(C)C1=O (stereo not drawn) [N-(4-fluorobenzyl)-2-hydroxy-2-methyl-4-(2,4,5-trimethyl-3,6-dioxocyclohexa-1,4-dienyl)butanamide], the EC50 [1] was under 100 nM, the EC50 [3] was under 100 nM and the EC50 [4] was under 100 nM.
With CC1=C(C)C(=O)C(CCC(C)(O)C(=O)NCCc2ccc(F)cc2)=C(C)C1=O (stereo not drawn) [N-(4-fluorophenethyl)-2-hydroxy-2-methyl-4-(2,4,5-trimethyl-3,6-dioxocyclohexa-1,4-dienyl)butanamide] the EC50 [1] was under 100 nM, the EC50 [3] was under 100 nM and the EC50 [4] was under 100 nM.
Compound CC1=C(C)C(=O)C(CCC(C)(O)C(=O)Nc2ccc(F)cc2)=C(C)C1=O (stereo not drawn) [N-(4-fluorophenyl)-2-hydroxy-2-methyl-4-(2,4,5-trimethyl-3,6-dioxocyclohexa-1,4-dienyl)butanamide] has an EC50 [1] of under 100 nM, an EC50 [3] of under 100 nM and an EC50 [4] of under 100 nM. It also gave an EC50 [2] of under 100 nM.
For CC1=C(C)C(=O)C(CCC(C)(O)C(=O)N2CCN(C(=O)OC(C)(C)C)CC2)=C(C)C1=O (stereo not drawn) [tert-butyl 4-(2-hydroxy-2-methyl-4-(2,4,5-trimethyl-3,6-dioxocyclohexa-1,4-dienyl)butanoyl)piperazine-1-carboxylate], the EC50 [2] was under 100 nM.
